Like-named read-outs stand apart in the source and are kept apart here.
Assays:
[1] = test system: Zika virus, Dengue, Yellow Fever Virus, West Nile Virus; assay: organism not typed; assay type: cell-based; settings: read-out: EC50, viral replication
[2] = test system: Puerto Rica strain of infectious Zika virus; assay: microbe, parasite or virus in culture; assay type: cell-based; settings: Vero
[3] = test system: Rift Valley Fever Virus (RVFV); assay: microbe, parasite or virus in culture; assay type: cell-based
[4] = Maximum tolerated dose (MTD) in mice; assay type: in vivo; settings: AG129 mice; for Alive/total / MDD ± SD (average day of death) / Mean wt. change (g) ± SD: q 3 d × 3; for Alive/total / MDD ± SD (average day of death): 14 days; for Mean wt. change (g) ± SD: weight on 0 and 2 days post-initial treatment
Experimental: Without wishing to be bound by theory, the purpose of this study is to further identify the MTD and dosing frequency that can be used for Isis-11 (E2) in future antiviral efficacy studies.
Animals: 21 AG129 mice produced by an in-house colony were used. Groups of animals were assigned by weight to experimental groups and individually marked with ear tags.
Test agent: Isis-11 (E2) was provided by University of Utah for testing in the mouse model.
[…] Additional treatments were administered at various time points. Mice were monitored for mortality until 14 days post-initial treatment (dpi). Individual weights were measured daily 0-10 dpi and on 14 dpi.
Statistical analysis: Survival data were analyzed using the Wilcoxon log-rank survival analysis and all other statistical analyses were done using one-way ANOVA using a Bonferroni group comparison (Prism 5, GraphPad Software, Inc.).

[5] = test system: Gli-luciferace activity in the SUFU-KO-light cells; assay: SUFU-KO-Light assay, inhibition of Gli-luciferase activity; assay type: cell-based; settings: read-out: IC50 (μM) SUFU-KO-Light; inhibition of Gli-luciferase activity; listed as Isis-11 (−isomer/E2)
Description: IC50 SUFO-KO-Light values are for inhibition of Gli-luciferace activity in the SUFU-KO-light cells developed by the James Chen laboratory at Stanford University.

MB002 cells = assay: MTT assay, cell proliferation; assay type: cell-based
Shh-NPD (Hh subcategory) = assay: MTT assay, Medulloblastoma cell line; assay type: cell-based
Experimental: (§1) The EC50 values shown below in Table 9 were determined for Isis-11 (E2) by MTT assay in the Medulloblastoma cell lines as indicated.

UW-426 (Hh subcategory) = assay: MTT assay, Medulloblastoma cell line; assay type: cell-based; settings: UW426
Experimental: as §1

[6] = test system: SUFU-KO-Light cells expressing Gli-luciferase; assay: Dose-effect curves, dual-Glo luciferase, Compusyn; assay type: cell-based
SARS-CoV-2 [7] = settings: infected Vero cells, 24 hours post-infection, Western blot
[8] = Mouse PK evaluation, plasma, IV; settings: CD-1 mice; for AUC(0-inf): AUCInf; for MRT inf: MRTInf_obs
[9] = test system: Raji (Burkitt Lymphoma cell line); assay: Raji cell viability / proliferation; settings: Homo sapiens, read-out: IC50, Raji cell proliferation
SARS-CoV-2 [10] = assay: microbe, parasite or virus in culture; settings: Severe acute respiratory syndrome coronavirus 2, Vero C1008, read-out: EC50, inhibition of cell death
[11] = CD-1, mouse, in vivo, iv, 3 mg/kg, Mean, 3 mg/kg IV
[12] = CD-1, mouse, in vivo, iv, 3 mg/kg, Mouse 1, 3 mg/kg IV
[13] = CD-1, mouse, in vivo, iv, 3 mg/kg, Mouse 2, 3 mg/kg IV

CN(C)CCCn1c(N)nc2ccc3c(c21)CC(CN(C)C)O3 (single isomer, unassigned) [Compound E2]
EC50 [1]: 290 to 320 nM
EC50 [2]: 80 nM
activity relative to BCX4430 against RVFV [3]: 92 fold
EC50 ([3]; Rift Valley fever virus): 450 nM
Alive/total ([4]; 1.0 mg/kg/d): 3/3
MDD ± SD (average day of death) ([4]; 1.0 mg/kg/d): >14.0 ± 0.0 days
Mean wt. change (g) ± SD ([4]; 1.0 mg/kg/d): -1.2 ± 0.8 g
tolerability ([4]; 3.2 mg/kg eod or q3d): well-tolerated
mortality and weight loss ([4]; 3.2 mg/kg i.p.): no mortality or weight loss
Alive/total ([4]; 3.2 mg/kg/d): 3/3
MDD ± SD (average day of death) ([4]; 3.2 mg/kg/d): >14.0 ± 0.0 days
Mean wt. change (g) ± SD ([4]; 3.2 mg/kg/d): -0.1 ± 0.8 g
mortality (animals succumbing to toxicity) ([4]; 10 mg/kg i.p., eod or q3d): 2 of 5
body weight ([4]; 10 mg/kg i.p., between 0 and 14 days after initial treatment): some transient weight loss, but an overall weight gain
mortality ([4]; 32 mg/kg i.p., eod for 4 treatments or q3d for 3 treatments): all succumbed
body weight ([4]; 32 mg/kg i.p., eod or q3d): weight loss
tolerability, second study ([4]; 3.2 or 1.0 mg/kg/d once every third day): well-tolerated with no indication of toxicity
tolerability ([4]; 10 or 32 mg/kg, eod or q3d): toxic
toxicity, initial study ([4]; administered bid, once a day at total daily doses of 32, 10, or 3.2 mg/kg/d): substantial toxicity
MTD at 14 days ([4]; mouse, in vivo, ip): 3.2 mg/kg
IC50 [5]: 0.1 µM
EC50 (MB002 cells; MB002): 430 nM
IC50 (MB002 cells; MB002, read-out: Dose E2): 320 nM
EC50 (Shh-NPD (Hh subcategory)): 720 nM
EC50 (UW-426 (Hh subcategory)): 105 nM
EC50 ([6]; read-out: Dose E2): 63.5 nM
EC50 ([6]; read-out: EC50 as single agent): 60 nM
SARS-CoV-2 nucleocapsid protein levels (SARS-CoV-2 [7]): dose-dependent reduction of viral protein
AUC_%Extrap_obs, Mean ([8]; 3 mg/kg IV): 22.3%
AUC_%Extrap_obs, Mouse 1 ([8]; 3 mg/kg IV): 10.4%
AUC_%Extrap_obs, Mouse 2 ([8]; 3 mg/kg IV): 18.9%
AUC_%Extrap_obs, Mouse 3 ([8]; 3 mg/kg IV): 37.6%
AUClast, Mean ([8]; 3 mg/kg IV): 439 ng·h/mL
AUClast, Mouse 1 ([8]; 3 mg/kg IV): 472 ng·h/mL
AUClast, Mouse 2 ([8]; 3 mg/kg IV): 360 ng·h/mL
AUClast, Mouse 3 ([8]; 3 mg/kg IV): 487 ng·h/mL
AUClast/D, Mean ([8]; 3 mg/kg IV): 146
AUClast/D, Mouse 1 ([8]; 3 mg/kg IV): 157
AUClast/D, Mouse 2 ([8]; 3 mg/kg IV): 120
AUClast/D, Mouse 3 ([8]; 3 mg/kg IV): 162
C0, Mean ([8]; 3 mg/kg IV): 794 ng/mL
C0, Mouse 1 ([8]; 3 mg/kg IV): 861 ng/mL
C0, Mouse 2 ([8]; 3 mg/kg IV): 801 ng/mL
C0, Mouse 3 ([8]; 3 mg/kg IV): 720 ng/mL
Cl_obs, Mean ([8]; 3 mg/kg IV): 91 mL/min/kg
Cl_obs, Mouse 1 ([8]; 3 mg/kg IV): 95.0 mL/min/kg
Cl_obs, Mouse 2 ([8]; 3 mg/kg IV): 113 mL/min/kg
Cl_obs, Mouse 3 ([8]; 3 mg/kg IV): 64.1 mL/min/kg
Vss_obs, Mean ([8]; 3 mg/kg IV): 71.1 L/kg
Vss_obs, Mouse 1 ([8]; 3 mg/kg IV): 43.7 L/kg
Vss_obs, Mouse 2 ([8]; 3 mg/kg IV): 82.5 L/kg
Vss_obs, Mouse 3 ([8]; 3 mg/kg IV): 87.0 L/kg
Plasma concentration, Mean ([8]; 3 mg/kg IV, 0.083 h): 457 ng/mL
Plasma concentration, Mouse 1 ([8]; 3 mg/kg IV, 0.083 h): 445 ng/mL
Plasma concentration, Mouse 2 ([8]; 3 mg/kg IV, 0.083 h): 452 ng/mL
Plasma concentration, Mouse 3 ([8]; 3 mg/kg IV, 0.083 h): 473 ng/mL
Plasma concentration, Mean ([8]; 3 mg/kg IV, 0.25 h): 155 ng/mL
Plasma concentration, Mouse 1 ([8]; 3 mg/kg IV, 0.25 h): 118 ng/mL
Plasma concentration, Mouse 2 ([8]; 3 mg/kg IV, 0.25 h): 143 ng/mL
Plasma concentration, Mouse 3 ([8]; 3 mg/kg IV, 0.25 h): 203 ng/mL
Plasma concentration, Mean ([8]; 3 mg/kg IV, 0.5 h): 98 ng/mL
Plasma concentration, Mouse 1 ([8]; 3 mg/kg IV, 0.5 h): 158 ng/mL
Plasma concentration, Mouse 2 ([8]; 3 mg/kg IV, 0.5 h): 60.2 ng/mL
Plasma concentration, Mouse 3 ([8]; 3 mg/kg IV, 0.5 h): 75.5 ng/mL
Plasma concentration, Mean ([8]; 3 mg/kg IV, 1 h): 51.1 ng/mL
Plasma concentration, Mouse 1 ([8]; 3 mg/kg IV, 1 h): 64.0 ng/mL
Plasma concentration, Mouse 2 ([8]; 3 mg/kg IV, 1 h): 42.7 ng/mL
Plasma concentration, Mouse 3 ([8]; 3 mg/kg IV, 1 h): 46.5 ng/mL
Plasma concentration, Mean ([8]; 3 mg/kg IV, 2 h): 27.2 ng/mL
Plasma concentration, Mouse 1 ([8]; 3 mg/kg IV, 2 h): 31.9 ng/mL
Plasma concentration, Mouse 2 ([8]; 3 mg/kg IV, 2 h): 26.8 ng/mL
Plasma concentration, Mouse 3 ([8]; 3 mg/kg IV, 2 h): 22.8 ng/mL
Plasma concentration, Mean ([8]; 3 mg/kg IV, 4 h): 19.0 ng/mL
Plasma concentration, Mouse 1 ([8]; 3 mg/kg IV, 4 h): 25.4 ng/mL
Plasma concentration, Mouse 2 ([8]; 3 mg/kg IV, 4 h): 11.7 ng/mL
Plasma concentration, Mouse 3 ([8]; 3 mg/kg IV, 4 h): 19.8 ng/mL
Plasma concentration, Mean ([8]; 3 mg/kg IV, 8 h): 8.9 ng/mL
Plasma concentration, Mouse 1 ([8]; 3 mg/kg IV, 8 h): 8.79 ng/mL
Plasma concentration, Mouse 2 ([8]; 3 mg/kg IV, 8 h): 7.76 ng/mL
Plasma concentration, Mouse 3 ([8]; 3 mg/kg IV, 8 h): 10.2 ng/mL
Plasma concentration, Mean ([8]; 3 mg/kg IV, 24 h): 6.9 ng/mL
Plasma concentration, Mouse 1 ([8]; 3 mg/kg IV, 24 h): 4.57 ng/mL
Plasma concentration, Mouse 2 ([8]; 3 mg/kg IV, 24 h): 4.10 ng/mL
Plasma concentration, Mouse 3 ([8]; 3 mg/kg IV, 24 h): 12.1 ng/mL
AUC(0-inf) [8, 11]: 485 ng·h/mL
AUC(0-inf) [8, 12]: 526 ng·h/mL
AUC(0-inf) [8, 13]: 444 ng·h/mL
MRT inf [8, 11]: 9.9 h
MRT inf [8, 12]: 7.67 h
MRT inf [8, 13]: 12.2 h
half-life ([8]; CD-1, mouse, in vivo, iv, 3 mg/kg, T1/2, Mouse 2, 3 mg/kg IV): 852 min
IC50 [9]: 200 nM
EC50 (SARS-CoV-2 [10]): 142 nM

Reference: US12227512B2, “Benzimidazoles and methods of using same” (priority 2019, dated 2025)
